What was measured:
[1] = Surface laser light scattering (SLLS); for viscosity: Liquid
[2] = wn = mass fraction of the nth substance listed; details: Surface laser light scattering (SLLS); for viscosity: Liquid

CCCCCCCCCCCC [dodecane]
[1]
Details	surface tension liquid-gas [mN/m]	viscosity [mPa·s]
323.15 K	21.64	0.9225
348.15 K	19.91	0.6763
373.15 K	18.19	0.507
398.15 K	16.22	0.4003
423.15 K	14.33	0.3223
448.15 K	12.38	0.2595
473.15 K	10.67	0.2156
498.15 K	8.95	0.1821
523.15 K	7.25	0.1532
548.15 K	5.64	0.1277
573.15 K	4.14	0.1051

CCCCCCCCCCCCCCCCCCCCCCCCCCCC [octacosane]
[1]
Details	surface tension liquid-gas [mN/m]	viscosity [mPa·s]
398.15 K	21.33	1.814
423.15 K	19.53	1.361
448.15 K	17.78	1.025
473.15 K	16.57	0.8318
498.15 K	15.38	0.6847
523.15 K	14.18	0.5675
548.15 K	12.86	0.4753
573.15 K	11.51	0.3995

CCCCCCCCCCCCCCCCCCCCCCCCCCCC [octacosane] + CCCCCCCCCCCC
[2]
Details	surface tension liquid-gas [mN/m]	viscosity [mPa·s]
373.15 K, w2 = 0.156	21.71	1.944
398.15 K, w2 = 0.156	19.8	1.412
423.15 K, w2 = 0.156	18.5	1.089
448.15 K, w2 = 0.155	17.07	0.8604
473.15 K, w2 = 0.155	15.59	0.6912
498.15 K, w2 = 0.154	14.15	0.5671
523.15 K, w2 = 0.152	12.84	0.4787
548.15 K, w2 = 0.15	11.56	0.4075
573.15 K, w2 = 0.148	10.3	0.3445
